Measurements from patent publication US20230123334A1, “AMINO LIPID COMPOUND, PREPARATION METHOD THEREFOR, AND APPLICATION THEREOF” (SHENZHEN SHENXIN BIOTECHNOLOGY CO., LTD., priority 2020, published 2023).

Tested on: HEK293 cells
Assay: Preliminary screening as DNA vectors, GFP transfection of HEK293 cells
Type: cell-based
Details: amino lipid/DOPE liposome with 75 ng plasmid DNA (psin-EGFP-IRES-Puro); number of GFP-expressing cells divided by total nuclei (Hoechst)
Summary of the method: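 HEK293 cells in DMEM/10% FBS transfected with 75 ng EGFP plasmid per well complexed with amino lipid/DOPE liposomes in pH 5.6 sodium acetate. Hoechst nuclear stain added 20-24 h post-transfection, then cells cultured another 20-24 h. Confocal imaging gives GFP-positive cells as % of total nuclei.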

Row | SMILES | Absolute DNA transfection efficiency in HEK293 cells [%]
1 | CCCCCCCCCCCCCCCSc1nc(NCCN2CCCCC2)nc(SCCCCCCC)n1 [S7S15 D4] | 11.6
2 | CCCCCCCCCCCCCCCSc1nc(NCCN2CCN(C)CC2)nc(SCCCCCCC)n1 [S7S15 D5] | 14.9
3 | CCCCCCCCCCCCCCCSc1nc(NCCCN(C)C)nc(SCCCCCCC)n1 [S7S15 D6] | 7.6
4 | CCCCCCCCCCCCCCCSc1nc(NCCN(CC)CC)nc(SCCCCCCC)n1 [S7S15 D7] | 5.0
5 | CCCCCCCCCCCCCCCSc1nc(NCCCN2CCOCC2)nc(SCCCCCCC)n1 [S7S15 D8] | 10.9
6 | CCCCCCCCCCCCCCCSc1nc(NCCCN2CCN(C)CC2)nc(SCCCCCCC)n1 [S7S15 D9] | 1.6
7 | CCCCCCCCCCCCCCCSc1nc(NCC2CCN(C)CC2)nc(SCCCCCCC)n1 [S7S15 D10] | 33.3
8 | CCCCCCCCCCCCCCCCSc1nc(NCCN(C)C)nc(SCCCCCCC)n1 [S7S16 D1] | 10.0
9 | CCCCCCCCCCCCCCCCSc1nc(NCCN2CCOCC2)nc(SCCCCCCC)n1 [S7S16 D2] | 17.6
10 | CCCCCCCCCCCCCCCCSc1nc(NCCN2CCCC2)nc(SCCCCCCC)n1 [S7S16 D3] | 6.3
11 | CCCCCCCCCCCCCCCCSc1nc(NCCN2CCCCC2)nc(SCCCCCCC)n1 [S7S16 D4] | 10.9
12 | CCCCCCCCCCCCCCCCSc1nc(NCCN2CCN(C)CC2)nc(SCCCCCCC)n1 [S7S16 D5] | 7.9
13 | CCCCCCCCCCCCCCCCSc1nc(NCCCN(C)C)nc(SCCCCCCC)n1 [S7S16 D6] | 9.0
14 | CCCCCCCCCCCCCCCCSc1nc(NCCN(CC)CC)nc(SCCCCCCC)n1 [S7S16 D7] | 3.5
15 | CCCCCCCCCCCCCCCCSc1nc(NCCCN2CCOCC2)nc(SCCCCCCC)n1 [S7S16 D8] | 12.8
16 | CCCCCCCCCCCCCCCCSc1nc(NCCCN2CCN(C)CC2)nc(SCCCCCCC)n1 [S7S16 D9] | 2.3
17 | CCCCCCCCCCCCCCCCSc1nc(NCC2CCN(C)CC2)nc(SCCCCCCC)n1 [S7S16 D10] | 22.2
18 | CCCCCCCCCCCCCCCCCCSc1nc(NCCN(C)C)nc(SCCCCCCC)n1 [S7S18 D1] | 3.7
19 | CCCCCCCCCCCCCCCCCCSc1nc(NCCN2CCOCC2)nc(SCCCCCCC)n1 [S7S18 D2] | 7.1
20 | CCCCCCCCCCCCCCCCCCSc1nc(NCCN2CCCC2)nc(SCCCCCCC)n1 [S7S18 D3] | 11.2
21 | CCCCCCCCCCCCCCCCCCSc1nc(NCCN2CCCCC2)nc(SCCCCCCC)n1 [S7S18 D4] | 8.3
22 | CCCCCCCCCCCCCCCCCCSc1nc(NCCN2CCN(C)CC2)nc(SCCCCCCC)n1 [S7S18 D5] | 14.2
23 | CCCCCCCCCCCCCCCCCCSc1nc(NCCCN(C)C)nc(SCCCCCCC)n1 [S7S18 D6] | 5.5

Row | SMILES | Absolute DNA transfection efficiency in HEK293 cells [%]
24 | CCCCCCCCCCCCCCCCCCSc1nc(NCCN(CC)CC)nc(SCCCCCCC)n1 [S7S18 D7] | 7.3
25 | CCCCCCCCCCCCCCCCCCSc1nc(NCCCN2CCOCC2)nc(SCCCCCCC)n1 [S7S18 D8] | 16.1
26 | CCCCCCCCCCCCCCCCCCSc1nc(NCCCN2CCN(C)CC2)nc(SCCCCCCC)n1 [S7S18 D9] | 13.1
27 | CCCCCCCCCCCCCCCCCCSc1nc(NCC2CCN(C)CC2)nc(SCCCCCCC)n1 [S7S18 D10] | 48.9
28 | CCCCCCCCCCCCN(CCCCCCCCCCCC)c1nc(NCCN(C)C)nc(SCCCCCCC)n1 [S7^2N12 D1] | 0.2
29 | CCCCCCCCCCCCN(CCCCCCCCCCCC)c1nc(NCCN2CCOCC2)nc(SCCCCCCC)n1 [S7^2N12 D2] | 0.0
30 | CCCCCCCCCCCCN(CCCCCCCCCCCC)c1nc(NCCN2CCCC2)nc(SCCCCCCC)n1 [S7^2N12 D3] | 0.1
31 | CCCCCCCCCCCCN(CCCCCCCCCCCC)c1nc(NCCN2CCCCC2)nc(SCCCCCCC)n1 [S7^2N12 D4] | 0.0
32 | CCCCCCCCCCCCN(CCCCCCCCCCCC)c1nc(NCCN2CCN(C)CC2)nc(SCCCCCCC)n1 [S7^2N12 D5] | 0.2
33 | CCCCCCCCCCCCN(CCCCCCCCCCCC)c1nc(NCCCN(C)C)nc(SCCCCCCC)n1 [S7^2N12 D6] | 0.6
34 | CCCCCCCCCCCCN(CCCCCCCCCCCC)c1nc(NCCN(CC)CC)nc(SCCCCCCC)n1 [S7^2N12 D7] | 0.2
35 | CCCCCCCCCCCCN(CCCCCCCCCCCC)c1nc(NCCCN2CCOCC2)nc(SCCCCCCC)n1 [S7^2N12 D8] | 0.0
36 | CCCCCCCCCCCCN(CCCCCCCCCCCC)c1nc(NCCCN2CCN(C)CC2)nc(SCCCCCCC)n1 [S7^2N12 D9] | 0.3
37 | CCCCCCCCCCCCN(CCCCCCCCCCCC)c1nc(NCC2CCN(C)CC2)nc(SCCCCCCC)n1 [S7^2N12 D10] | 0.5
38 | CCCCCCCCSc1nc(NCCCCCC)nc(NCCN(C)C)n1 [S8N6 D1] | 3.4
39 | CCCCCCCCSc1nc(NCCCCCC)nc(NCCN2CCOCC2)n1 [S8N6 D2] | 0.2
40 | CCCCCCCCSc1nc(NCCCCCC)nc(NCCN2CCCC2)n1 [S8N6 D3] | 3.2
41 | CCCCCCCCSc1nc(NCCCCCC)nc(NCCN2CCCCC2)n1 [S8N6 D4] | 2.6
42 | CCCCCCCCSc1nc(NCCCCCC)nc(NCCN2CCN(C)CC2)n1 [S8N6 D5] | 5.0
43 | CCCCCCCCSc1nc(NCCCCCC)nc(NCCCN(C)C)n1 [S8N6 D6] | 4.3
44 | CCCCCCCCSc1nc(NCCCCCC)nc(NCCN(CC)CC)n1 [S8N6 D7] | 1.8
45 | CCCCCCCCSc1nc(NCCCCCC)nc(NCCCN2CCOCC2)n1 [S8N6 D8] | 0.0
46 | CCCCCCCCSc1nc(NCCCCCC)nc(NCCCN2CCN(C)CC2)n1 [S8N6 D9] | 2.2

Row | SMILES | Absolute DNA transfection efficiency in HEK293 cells [%]
47 | CCCCCCCCSc1nc(NCCCCCC)nc(NCC2CCN(C)CC2)n1 [S8N6 D10] | 0.5
48 | CCCCCCCCSc1nc(NCCCCCCC)nc(NCCN(C)C)n1 [S8N7 D1] | 3.0
49 | CCCCCCCCSc1nc(NCCCCCCC)nc(NCCN2CCOCC2)n1 [S8N7 D2] | 0.4
50 | CCCCCCCCSc1nc(NCCCCCCC)nc(NCCN2CCCC2)n1 [S8N7 D3] | 3.9
51 | CCCCCCCCSc1nc(NCCCCCCC)nc(NCCN2CCCCC2)n1 [S8N7 D4] | 3.8
52 | CCCCCCCCSc1nc(NCCCCCCC)nc(NCCN2CCN(C)CC2)n1 [S8N7 D5] | 3.6
53 | CCCCCCCCSc1nc(NCCCCCCC)nc(NCCCN(C)C)n1 [S8N7 D6] | 8.5
54 | CCCCCCCCSc1nc(NCCCCCCC)nc(NCCN(CC)CC)n1 [S8N7 D7] | 1.4
55 | CCCCCCCCSc1nc(NCCCCCCC)nc(NCCCN2CCOCC2)n1 [S8N7 D8] | 0.8
56 | CCCCCCCCSc1nc(NCCCCCCC)nc(NCCCN2CCN(C)CC2)n1 [S8N7 D9] | 3.6
57 | CCCCCCCCSc1nc(NCCCCCCC)nc(NCC2CCN(C)CC2)n1 [S8N7 D10] | 1.2
58 | CCCCCCCCNc1nc(NCCN(C)C)nc(SCCCCCCCC)n1 [S8N8 D1] | 9.3
59 | CCCCCCCCNc1nc(NCCN2CCOCC2)nc(SCCCCCCCC)n1 [S8N8 D2] | 1.5
60 | CCCCCCCCNc1nc(NCCN2CCCC2)nc(SCCCCCCCC)n1 [S8N8 D3] | 8.5
61 | CCCCCCCCNc1nc(NCCN2CCCCC2)nc(SCCCCCCCC)n1 [S8N8 D4] | 2.9
62 | CCCCCCCCNc1nc(NCCN2CCN(C)CC2)nc(SCCCCCCCC)n1 [S8N8 D5] | 9.1
63 | CCCCCCCCNc1nc(NCCCN(C)C)nc(SCCCCCCCC)n1 [S8N8 D6] | 8.7
64 | CCCCCCCCNc1nc(NCCN(CC)CC)nc(SCCCCCCCC)n1 [S8N8 D7] | 5.2
65 | CCCCCCCCNc1nc(NCCCN2CCOCC2)nc(SCCCCCCCC)n1 [S8N8 D8] | 2.9
66 | CCCCCCCCNc1nc(NCCCN2CCN(C)CC2)nc(SCCCCCCCC)n1 [S8N8 D9] | 7.4
67 | CCCCCCCCNc1nc(NCC2CCN(C)CC2)nc(SCCCCCCCC)n1 [S8N8 D10] | 6.1
68 | CCCCCCCCCNc1nc(NCCN(C)C)nc(SCCCCCCCC)n1 [S8N9 D1] | 33.6
